{"source": "patent EP0163537A1", "about": "“1-Propanone derivatives and pharmaceutical compositions containing same” (priority 1984, dated 1985)", "assay_type_in_all_cases": "in vivo", "key": {"Male mice of ddY strain [1]": {"system": "Male mice of ddY strain", "experiment": "Test 1 Anti-nicotine activity (inhibition of nicotine-induced convulsive death)", "conditions": "200 mg/kg po, nicotine 2 mg/kg iv after 1 h, observed 1 h; for responders at 200 mg/kg: Mus musculus", "procedure": "Male mice of ddY strain, weighing 28 to 33 g, were used in groups of eight or twelve. The test compounds were dissolved in distilled water and administered orally in a dose of 200 mg/kg. After an hour, nicotine was intravenously administered in a dose of 2 mg/kg."}, "Male mice of ddY strain [2]": {"system": "Male mice of ddY strain", "experiment": "Test 2 Anti-tremorine activity (inhibition of tremorine-induced tremor)", "conditions": "for responders at 50 mg/kg: Mus musculus, po, read-out: Inhibition of tremor (%)", "method": "Male mice of ddY strain, weighing 28 to 32 g, were used in groups of eight or ten. The test compounds were dissolved in distilled water and administered orally in a dose of 50 mg/kg. After 30 minutes, tremorine dihydrochloride was subcutaneously administered in a dose of 20 mg/kg. Then, the occurrence of tremor was observed after the lapse of 30 and 60 minutes."}, "Male mice of ddY strain [3]": {"system": "Male mice of ddY strain", "experiment": "Test 3 Muscle relaxant activity (traction test, method of Courvoisier et al.)", "conditions": "15 minutes after administration, groups of ten", "method": "Male mice of ddY strain, weighing 30 to 37 g, were used in groups of ten. The test compounds were dissolved in physiological saline and administered intraperitoneally in a dose of 50 or 75 mg/kg. […] This method involves a traction test in which the animal is hung by its forelimbs on a horizontal metal rod (2 mm in diameter) placed 20 cm above the floor and examined as to whether it can put its hindlimb on the rod or not.\nSpecifically, 15 minutes after administration of a test compound, the mouse was hung on the rod by its forelimbs. […] It had been confirmed in preliminary tests that, under normal conditions, all the mice could put their hindlimb on the rod within 5 seconds."}, "[4]": {"experiment": "Test 5 Acute toxicity (LD50, method of Behrens and Kärbar)", "conditions": "mouse, in vivo, po, mice, observed for 7 days", "procedure": "Male mice of ddY strain, weighing 25 to 30 g, were used in groups of five. The test compounds were dissolved in distilled water and administered orally in various doses. […] Then, the LDso was calculated according to the method of Behrens and Kärbar."}, "[5]": {"conditions": "0.5 h, Table-3b, 50 mg/kg po, After 30 min., 10 animals used"}, "[6]": {"conditions": "1 h, Table-3b, 50 mg/kg po, After 60 min., 10 animals used"}, "[7]": {"conditions": "Table-3b, 50 mg/kg po, After 30 min., 10 animals used"}, "[8]": {"conditions": "Table-3b, 50 mg/kg po, After 60 min., 10 animals used"}, "[9]": {"conditions": "Table-3d, 50 mg/kg po, After 30 min., 10 animals used"}, "[10]": {"conditions": "Table-3d, 50 mg/kg po, After 60 min., 10 animals used"}, "[11]": {"conditions": "0.5 h, Table-3a, 50 mg/kg po, After 30 min. from tremorine 20 mg/kg sc, 8 animals used"}, "[12]": {"conditions": "1 h, Table-3a, 50 mg/kg po, After 60 min. from tremorine 20 mg/kg sc, 8 animals used"}, "[13]": {"conditions": "Table-3a, 50 mg/kg po, After 30 min. from tremorine 20 mg/kg sc, 8 animals used"}, "[14]": {"conditions": "Table-3a, 50 mg/kg po, After 60 min. from tremorine 20 mg/kg sc, 8 animals used"}, "[15]": {"conditions": "po, 1 h, Table-2a, 8 animals used"}, "[16]": {"conditions": "0.5 h, Table-3d, 50 mg/kg po, After 30 min., 10 animals used"}, "[17]": {"conditions": "1 h, Table-3d, 50 mg/kg po, After 60 min., 10 animals used"}, "[18]": {"conditions": "po, 1 h, Table-2c, 12 animals used"}}, "note": "Counter-ions that a name gives are not always drawn. Like-named read-outs stand apart in the source and are kept apart here."}
{"compound": "CCC(CN1CCCC1)C(=O)c1ccc2c(c1)OCO2", "note": "(centres unmarked) [Example 56, 2-Ethyl-1-(3,4-methylenedioxyphenyl)-3-(1-pyrrolidi-nyl)-1-propanone hydrochloride]", "values": [{"measurement": "responders at 200 mg/kg", "setting": "Male mice of ddY strain [1]; Table-2b, 12 animals used", "value": 41.7, "unit": "%"}, {"measurement": "Number of surviving animals", "setting": "Male mice of ddY strain [1]; Table-2b, 12 animals used", "value": 5}]}
{"compound": "CC(C)C(CN1CCCCC1)C(=O)c1ccc(C2CC2)cc1.Cl", "note": "(centres unmarked) [Example 5, 1-(4-Cyclopropylphenyl)-2-isopropyl-3-piperidino-1-propanone hydrochloride]", "values": [{"measurement": "responders at 50 mg/kg", "setting": "Male mice of ddY strain [2]; [5]", "value": 100, "unit": "%"}, {"measurement": "responders at 50 mg/kg", "setting": "Male mice of ddY strain [2]; [6]", "value": 100, "unit": "%"}, {"measurement": "Number of animals exhibiting no tremor", "setting": "Male mice of ddY strain [2]; [7]", "value": 10}, {"measurement": "Number of animals exhibiting no tremor", "setting": "Male mice of ddY strain [2]; [8]", "value": 10}]}
{"compound": "CC(CN1CCCCCC1)C(=O)c1ccc2c(c1)OCO2.Cl", "note": "(centres unmarked) [Example 61, 2-Methyl-1-(3,4-methylenedioxyphenyl)-3-(hexahydro-1H-azepin-1-yl)-1-propanone hydrochloride]", "values": [{"measurement": "responders at 200 mg/kg", "setting": "Male mice of ddY strain [1]; Table-2b, 12 animals used", "value": 58.3, "unit": "%"}, {"measurement": "Number of surviving animals", "setting": "Male mice of ddY strain [1]; Table-2b, 12 animals used", "value": 7}]}
{"compound": "1-(2,3-Dihydro-5-benzofuranyl)-2-ethyl-3-piperidino-1-propanone hydrochloride [Example 89]", "values": [{"measurement": "Inhibition of tremor (%)", "setting": "Male mice of ddY strain [2]; [9]", "value": 100, "unit": "%"}, {"measurement": "Number of animals exhibiting no tremor", "setting": "Male mice of ddY strain [2]; [9]", "value": 10}, {"measurement": "Inhibition of tremor (%)", "setting": "Male mice of ddY strain [2]; [10]", "value": 100, "unit": "%"}, {"measurement": "Number of animals exhibiting no tremor", "setting": "Male mice of ddY strain [2]; [10]", "value": 10}, {"measurement": "Muscle relaxation rate (%)", "setting": "Male mice of ddY strain [3]; Table-4d, 75 mg/kg ip", "value": 50, "unit": "%"}, {"measurement": "Number of animals exhibiting muscle relaxation", "setting": "Male mice of ddY strain [3]; Table-4d, 75 mg/kg ip", "value": 5}, {"measurement": "Inhibition of death (%)", "setting": "Male mice of ddY strain [1]; Table-2c, 12 animals used", "value": 66.7, "unit": "%"}, {"measurement": "Number of surviving animals", "setting": "Male mice of ddY strain [1]; Table-2c, 12 animals used", "value": 8}]}
{"compound": "CCCC(CN1CCCCCC1)C(=O)c1ccc2c(c1)CCO2.Cl", "note": "(centres unmarked) [Example 100, 1-(2,3-Dihydro-5-benzofuranyl)-2-n-propyl-3-(hexahydro-1H-azepin-1-yl)-1-propanone hydrochloride]", "values": [{"measurement": "responders at 50 mg/kg", "setting": "Male mice of ddY strain [2]; 0.5 h", "value": 100, "unit": "%"}, {"measurement": "responders at 50 mg/kg", "setting": "Male mice of ddY strain [2]; 1 h", "value": 100, "unit": "%"}, {"measurement": "Number of animals exhibiting no tremor", "setting": "Male mice of ddY strain [2]; [9]", "value": 10}, {"measurement": "Number of animals exhibiting no tremor", "setting": "Male mice of ddY strain [2]; [10]", "value": 10}, {"measurement": "responders at 200 mg/kg", "setting": "Male mice of ddY strain [1]; Table-2c, 12 animals used", "value": 0, "unit": "%"}, {"measurement": "Number of surviving animals", "setting": "Male mice of ddY strain [1]; Table-2c, 12 animals used", "value": 0}]}
{"compound": "CCC(CN1CCCC1)C(=O)c1ccc(C2CC2)cc1.Cl", "note": "(centres unmarked) [Example 10, 1-(4-Cyclopropylphenyl)-2-ethyl-3-(1-pyrrolidinyl)-1-propanone hydrochloride]", "values": [{"measurement": "responders at 50 mg/kg", "setting": "Male mice of ddY strain [2]; [11]", "value": 100, "unit": "%"}, {"measurement": "responders at 50 mg/kg", "setting": "Male mice of ddY strain [2]; [12]", "value": 100, "unit": "%"}, {"measurement": "Number of animals exhibiting no tremor", "setting": "Male mice of ddY strain [2]; [13]", "value": 8}, {"measurement": "Number of animals exhibiting no tremor", "setting": "Male mice of ddY strain [2]; [14]", "value": 8}, {"measurement": "responders at 200 mg/kg", "setting": "Male mice of ddY strain [1]; [15]", "value": 0, "unit": "%"}, {"measurement": "Number of surviving animals", "setting": "Male mice of ddY strain [1]; Table-2a, 8 animals used", "value": 0}]}
{"compound": "CCC(CN1CCCCCC1)C(=O)c1ccc2c(c1)CCO2.Cl", "note": "(centres unmarked) [Example 96, 1-(2,3-Dihydro-5-benzofuranyl)-2-ethyl-3-(hexa-hydro-1H-azepin-1-yl)-1-propanone hydrochloride]", "values": [{"measurement": "responders at 50 mg/kg", "setting": "Male mice of ddY strain [2]; [16]", "value": 100, "unit": "%"}, {"measurement": "responders at 50 mg/kg", "setting": "Male mice of ddY strain [2]; [17]", "value": 100, "unit": "%"}, {"measurement": "Number of animals exhibiting no tremor", "setting": "Male mice of ddY strain [2]; [9]", "value": 10}, {"measurement": "Number of animals exhibiting no tremor", "setting": "Male mice of ddY strain [2]; [10]", "value": 10}, {"measurement": "responders at 200 mg/kg", "setting": "Male mice of ddY strain [1]; [18]", "value": 41.7, "unit": "%"}, {"measurement": "Number of surviving animals", "setting": "Male mice of ddY strain [1]; Table-2c, 12 animals used", "value": 5}]}
{"compound": "CC(CN1CCCCC1)C(=O)c1ccc(C2CCCCC2)cc1.Cl", "note": "(centres unmarked) [Example 48, 1-(4-Cyclohexylphenyl)-2-methyl-3-piperidino-1-propanone hydrochloride]", "values": [{"measurement": "responders at 50 mg/kg", "setting": "Male mice of ddY strain [2]; [11]", "value": 100, "unit": "%"}, {"measurement": "responders at 50 mg/kg", "setting": "Male mice of ddY strain [2]; [12]", "value": 37.5, "unit": "%"}, {"measurement": "responders at 200 mg/kg", "setting": "Male mice of ddY strain [1]; [15]", "value": 62.5, "unit": "%"}, {"measurement": "Number of surviving animals", "setting": "Male mice of ddY strain [1]; Table-2a, 8 animals used", "value": 5}]}
{"compound": "CCCC(CN1CCCC1)C(=O)c1ccc2c(c1)CCO2.Cl", "note": "(centres unmarked) [Example 98, 1-(2,3-Dihydro-5-benzofuranyl)-2-n-propyl-3-(1-pyrrolidinyl)-1-propanone hydrochloride]", "values": [{"measurement": "responders at 50 mg/kg", "setting": "Male mice of ddY strain [2]; 0.5 h", "value": 100, "unit": "%"}, {"measurement": "responders at 50 mg/kg", "setting": "Male mice of ddY strain [2]; 1 h", "value": 90, "unit": "%"}, {"measurement": "responders at 200 mg/kg", "setting": "Male mice of ddY strain [1]; Table-2c, 12 animals used", "value": 0, "unit": "%"}, {"measurement": "Number of surviving animals", "setting": "Male mice of ddY strain [1]; Table-2c, 12 animals used", "value": 0}]}
{"compound": "Cc1ccc(C(=O)C(C)CN2CCCCC2)cc1", "note": "(centres unmarked) [Tolperisone HCl, 2-methyl-1-(4-methylphenyl)-3-(1-piperidinyl)-1-propanone, reference compound]", "values": [{"measurement": "responders at 50 mg/kg", "setting": "Male mice of ddY strain [2]; [11]", "value": 0, "unit": "%"}, {"measurement": "responders at 50 mg/kg", "setting": "Male mice of ddY strain [2]; [5]", "value": 0, "unit": "%"}, {"measurement": "responders at 50 mg/kg", "setting": "Male mice of ddY strain [2]; [16]", "value": 0, "unit": "%"}, {"measurement": "responders at 50 mg/kg", "setting": "Male mice of ddY strain [2]; [12]", "value": 0, "unit": "%"}, {"measurement": "responders at 50 mg/kg", "setting": "Male mice of ddY strain [2]; [6]", "value": 0, "unit": "%"}, {"measurement": "responders at 50 mg/kg", "setting": "Male mice of ddY strain [2]; [17]", "value": 0, "unit": "%"}, {"measurement": "Number of animals exhibiting no tremor", "setting": "Male mice of ddY strain [2]; [13]", "value": 0}, {"measurement": "Number of animals exhibiting no tremor", "setting": "Male mice of ddY strain [2]; [14]", "value": 0}, {"measurement": "Number of animals exhibiting no tremor", "setting": "Male mice of ddY strain [2]; [7]", "value": 0}, {"measurement": "Number of animals exhibiting no tremor", "setting": "Male mice of ddY strain [2]; [8]", "value": 0}, {"measurement": "Number of animals exhibiting no tremor", "setting": "Male mice of ddY strain [2]; [9]", "value": 0}, {"measurement": "Number of animals exhibiting no tremor", "setting": "Male mice of ddY strain [2]; [10]", "value": 0}, {"measurement": "LD50 at 168 h", "setting": "[4]; Table-5a", "value": 625, "unit": "mg/kg"}, {"measurement": "LD50 at 168 h", "setting": "[4]; Table-5b", "value": 655, "unit": "mg/kg"}, {"measurement": "LD50 at 168 h", "setting": "[4]; Table-5c", "value": 595, "unit": "mg/kg"}, {"measurement": "Number of animals exhibiting muscle relaxation", "setting": "Male mice of ddY strain [3]; Table-4a, 50 mg/kg ip", "value": 1}, {"measurement": "Number of animals exhibiting muscle relaxation", "setting": "Male mice of ddY strain [3]; Table-4d, 75 mg/kg ip", "value": 1}, {"measurement": "responders at 200 mg/kg", "setting": "Male mice of ddY strain [1]; [15]", "value": 0, "unit": "%"}, {"measurement": "responders at 200 mg/kg", "setting": "Male mice of ddY strain [1]; po, 1 h, Table-2b, 12 animals used", "value": 0, "unit": "%"}, {"measurement": "responders at 200 mg/kg", "setting": "Male mice of ddY strain [1]; [18]", "value": 8.3, "unit": "%"}]}
